From the supplement of paper PMC11061612

Legend:
RVH-421 (Melanoma) [1] = assay: Bliss excess, mean over the matrix (fraction); higher = more synergy
Summary of the method: (§1)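 Cell lines in DMEM/F12 or RPMI with 10% FBS were plated in 1536-well plates, held 24 hours at 37°C, 5% CO2, then given two-drug dose matrices for 72 hours (DMSO typically 0.2%). Viability was read by CellTiter-Glo 2.0 luminescence and scaled as inhibition from 0 (vehicle wells) to 1 (blank wells). Combination Emax is the second-highest inhibition in the matrix; Bliss excess is observed combination effect minus expected EA + EB − EA·EB, EA and EB being single-agent effects.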

[2] = system: C2BBe1 (Colorectal Carcinoma); assay: combination Emax (second highest fraction inhibited in the dose matrix, 72 h); higher = more inhibition; extreme values may be limits of the assay
Summary of the method: as §1

A375 (Melanoma) = assay: as above
Summary of the method: as §1

[3] = system: NCI-H2009 (Lung Adenocarcinoma); assay: as above
Summary of the method: as §1

SK-MEL-24 (Melanoma) = assay: as above
Summary of the method: as §1

[4] = system: TOV-21G (Ovarian Carcinoma); assay: as above
Summary of the method: as §1

[5] = system: L-363 (Plasma Cell Myeloma); assay: as above
Summary of the method: as §1

C32 (Melanoma) = assay: as above
Summary of the method: as §1

[6] = system: MDA-MB-175-VII (Breast Carcinoma); assay: as above
Summary of the method: as §1

[7] = system: COR-L105 (Lung Adenocarcinoma); assay: as above
Summary of the method: as §1

RVH-421 (Melanoma) [8] = assay: as above
Summary of the method: as §1

[9] = system: SNU-1 (Gastric Carcinoma); assay: as above
Summary of the method: as §1

SK-N-DZ (Neuroblastoma) = assay: as above
Summary of the method: as §1

[10] = system: NCI-H1435 (Non-Small Cell Lung Carcinoma); assay: as above
Summary of the method: as §1

[11] = system: HT-1197 (Bladder Carcinoma); assay: as above
Summary of the method: as §1

[12] = system: JJN-3 (Plasma Cell Myeloma); assay: as above
Summary of the method: as §1

[13] = system: Daudi (Burkitt's Lymphoma); assay: as above
Summary of the method: as §1

HT-144 (Melanoma) = assay: as above
Summary of the method: as §1
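Wherever Bliss excess, mean over the matrix is given: after 72 h of two-drug dosing.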

| SMILES | Bliss excess (RVH-421 (Melanoma) [1]) | combination Emax [2] | combination Emax (A375 (Melanoma)) | combination Emax [3] | combination Emax (SK-MEL-24 (Melanoma)) | combination Emax [4] | combination Emax [5] | combination Emax (C32 (Melanoma)) | combination Emax [6] | combination Emax [7] | combination Emax (RVH-421 (Melanoma) [8]) | combination Emax [9] | combination Emax (SK-N-DZ (Neuroblastoma)) | combination Emax [10] | combination Emax [11] | combination Emax [12] | combination Emax [13] | combination Emax (HT-144 (Melanoma)) |
| --- | --- | --- | --- | --- | --- | --- | --- | --- | --- | --- | --- | --- | --- | --- | --- | --- | --- | --- |
| CCN(CCO)CCCOc1ccc2c(Nc3cc(CC(=O)Nc4cccc(F)c4)[nH]n3)ncnc2c1 [AZD2811] + O=C(c1cc(Cc2n[nH]c(=O)c3ccccc23)ccc1F)N1CCN(C(=O)C2CC2)CC1 [Olaparib] (first compound max 1 µM, 7x7, partner max 10 µM) | -0.0685 | 0.131 | 0.408 | 0.343 | 0.225 | 0.288 | 0.184 | 0.232 | 0.23 | 0.231 | 0.176 | 0.381 | 0.405 | 0.196 | 0.203 | 0.336 | 0.48 | 0.309 |
| CC1(C)CCC(CN2CCN(c3ccc(C(=O)NS(=O)(=O)c4ccc(NCC5CCOCC5)c([N+](=O)[O-])c4)c(Oc4cnc5[nH]ccc5c4)c3)CC2)=C(c2ccc(Cl)cc2)C1 [Venetoclax] + C[C@@H](Nc1cc(F)cc(F)c1)c1cc(C(=O)N(C)C)cc2c(=O)cc(N3CCOCC3)oc12 [AZD8186] (first compound max 1 µM, 7x7, partner max 3 µM) | -0.0084 | 0.318 | 0.109 | 0.445 | 0.321 | 0.149 | 0.805 | 0.26 | 0.315 | 0.24 | 0.326 | 0.154 | 0.256 | 0.203 | 0.126 | 0.232 | 0.271 | 0.159 |
| CC1(C)CCC(CN2CCN(c3ccc(C(=O)NS(=O)(=O)c4ccc(NCC5CCOCC5)c([N+](=O)[O-])c4)c(Oc4cnc5[nH]ccc5c4)c3)CC2)=C(c2ccc(Cl)cc2)C1 [Venetoclax] + C=CCn1c(=O)c2cnc(Nc3ccc(N4CCN(C)CC4)cc3)nc2n1-c1cccc(C(C)(C)O)n1 [AZD1775] (first compound max 1 µM, partner max 1 µM) | -0.0875 | 0.39 | 0.505 | 0.637 | 0.401 | 0.703 | 1 | 0.546 | 0.444 | 0.372 | 0.183 | 0.769 | 0.999 | 0.35 | 0.487 | 0.693 | 0.663 | 0.509 |
| CC1(C)CCC(CN2CCN(c3ccc(C(=O)NS(=O)(=O)c4ccc(NCC5CCOCC5)c([N+](=O)[O-])c4)c(Oc4cnc5[nH]ccc5c4)c3)CC2)=C(c2ccc(Cl)cc2)C1 [Venetoclax] + CCN(CCO)CCCOc1ccc2c(Nc3cc(CC(=O)Nc4cccc(F)c4)[nH]n3)ncnc2c1 [AZD2811] (first compound max 1 µM, 7x7, partner max 1 µM) | -0.0636 | 0.214 | 0.371 | 0.236 | 0.248 | 0.354 | 0.865 | 0.385 | 0.23 | 0.211 | 0.164 | 0.297 | 0.552 | 0.161 | 0.221 | 0.806 | 0.366 | 0.266 |
| COc1cccc(OCCCN)c1-c1cc(Nc2cnc(C#N)cn2)n[nH]1 [Prexasertib] + CCc1c2c(nc3ccc(O)cc13)-c1cc3c(c(=O)n1C2)COC(=O)[C@]3(O)CC [SN-38] (first compound max 1 µM, 7x7, partner max 0.3 µM) | -0.069 | 0.708 | 0.962 | 0.886 | 0.837 | 0.852 | 1 | 0.714 | 0.547 | 0.488 | 0.363 | 0.953 | 1 | 0.481 | 0.543 | 0.981 | 0.987 | 0.912 |
| CN(C)CCCOc1ccc(-c2ccc3ncc4c(c3c2)n(C2CCOCC2)c(=O)n4C)cn1 [AZD0156] + C=CCn1c(=O)c2cnc(Nc3ccc(N4CCN(C)CC4)cc3)nc2n1-c1cccc(C(C)(C)O)n1 [AZD1775] (first compound max 1 µM, partner max 1 µM) | -0.0576 | 0.209 | 0.535 | 0.557 | 0.443 | 0.556 | 0.985 | 0.442 | 0.299 | 0.418 | 0.161 | 0.623 | 0.962 | 0.193 | 0.486 | 0.661 | 0.781 | 0.587 |
| Cc1c2c(nn1C)CSCc1cc(n(C)n1)CSc1cc(c3ccccc3c1)OCCCc1c(C(=O)O)n(C)c3c-2c(Cl)ccc13 [AZD5991] + CC1(C)CCC(CN2CCN(c3ccc(C(=O)NS(=O)(=O)c4ccc(NCC5CCOCC5)c([N+](=O)[O-])c4)c(Oc4cnc5[nH]ccc5c4)c3)CC2)=C(c2ccc(Cl)cc2)C1 [Venetoclax] (first compound max 1 µM, 7x7, partner max 1 µM) | -0.0237 | 0.23 | 0.307 | 0.151 | 0.336 | 0.209 | 1 | 0.626 | 0.152 | 0.181 | 0.358 | 0.933 | 0.479 | 0.206 | 0.148 | 1 | 0.258 | 0.955 |
| CC1(C)CCC(CN2CCN(c3ccc(C(=O)NS(=O)(=O)c4ccc(NCC5CCOCC5)c([N+](=O)[O-])c4)c(Oc4cnc5[nH]ccc5c4)c3)CC2)=C(c2ccc(Cl)cc2)C1 [Venetoclax] + Cc1cc2ncnn2cc1Nc1ncc2c(n1)n(C1CCOCC1)c(=O)n2C [AZD7648] (first compound max 1 µM, 7x7, partner max 10 µM) | -0.0443 | 0.278 | 0.233 | 0.12 | 0.248 | 0.195 | 0.867 | 0.396 | 0.243 | 0.274 | 0.221 | 0.288 | 0.399 | 0.165 | 0.214 | 0.327 | 0.247 | 0.222 |
| Cc1c2c(nn1C)CSCc1cc(n(C)n1)CSc1cc(c3ccccc3c1)OCCCc1c(C(=O)O)n(C)c3c-2c(Cl)ccc13 [AZD5991] + C[C@@H]1COCCN1C2=NC(=NC(=C2)C3(CC3)[S@](=N)(=O)C)C4=C5C=CNC5=NC=C4 [AZD6738] (first compound max 1 µM, 7x7, partner max 10 µM) | 0.013 | 0.452 | 0.893 | 0.466 | 0.549 | 0.798 | 1 | 0.756 | 0.259 | 0.511 | 0.265 | 0.794 | 0.931 | 0.217 | 0.466 | 1 | 0.874 | 0.969 |
| CC1(C)CCC(CN2CCN(c3ccc(C(=O)NS(=O)(=O)c4ccc(NCC5CCOCC5)c([N+](=O)[O-])c4)c(Oc4cnc5[nH]ccc5c4)c3)CC2)=C(c2ccc(Cl)cc2)C1 [Venetoclax] + Cn1cnc2c(F)c(Nc3ccc(Br)cc3Cl)c(C(=O)NOCCO)cc21 [Selumetinib] (first compound max 1 µM, 7x7, partner max 3 µM) | -0.0317 | 0.329 | 0.686 | 0.184 | 0.553 | 0.216 | 0.833 | 0.941 | 0.255 | 0.362 | 0.385 | 0.221 | 0.246 | 0.156 | 0.254 | 0.462 | 0.115 | 0.654 |
| CN(CCO)CC[C@H](CSc1ccccc1)Nc1ccc(S(=O)(=O)NC(=O)c2ccc(N3CCC([C@@H](O)c4ccccc4-c4ccc(Cl)cc4)CC3)cc2)cc1S(=O)(=O)C(F)(F)F [AZD4320] + C=CCn1c(=O)c2cnc(Nc3ccc(N4CCN(C)CC4)cc3)nc2n1-c1cccc(C(C)(C)O)n1 [AZD1775] (first compound max 1 µM, partner max 1 µM) | 0.0274 | 0.346 | 0.749 | 0.764 | 0.582 | 0.721 | 1 | 0.639 | 0.32 | 0.478 | 0.442 | 0.929 | 1 | 0.801 | 0.622 | 0.662 | 0.336 | 0.654 |
| CCN(CCO)CCCOc1ccc2c(Nc3cc(CC(=O)Nc4cccc(F)c4)[nH]n3)ncnc2c1 [AZD2811] + C=CCn1c(=O)c2cnc(Nc3ccc(N4CCN(C)CC4)cc3)nc2n1-c1cccc(C(C)(C)O)n1 [AZD1775] (first compound max 1 µM, partner max 1 µM) | -0.0694 | 0.274 | 0.482 | 0.749 | 0.414 | 0.591 | 0.931 | 0.359 | 0.205 | 0.331 | 0.0949 | 0.675 | 0.96 | 0.143 | 0.481 | 0.694 | 0.786 | 0.634 |
